Consider 6 compounds from patent US20070276013A1, “Active Substance Combinations with Insecticidal Properties” (priority 2004, published 2007).

Holding throughout (format): in vivo
For series [1], the system named is Phaedon cochleariae larvae. In words: Phaedon cochleariae larvae test, treated cabbage leaves. The conditions noted are these: 144 h, after 6 d. An excerpt:
(§1) The action to be expected for a given combination of two active substance can be calculated as follows according to S. R. Colby, Weeds 15 (1967), 20-22:
(§2) If • X stands for the mortality rate expressed in % of the untreated control upon the use of active substance A at an application amount of m g/ha or in a concentration of m ppm, • Y stands for the mortality rate expressed in % of the untreated control upon the use of active substance B at an application amount of n g/ha or in a concentration of n ppm, and • E stands for the mortality rate expressed in % of the untreated control upon the use of active substances A and B at an application amount of m and n g/ha or in a concentration of m and n ppm, then [formula]
(§3) If the actual insecticidal mortality rate is greater than calculated, then the combination is […] in its mortality; that is to say, a synergistic effect is present. In this case the mortality rate that is actually observed must be greater than the value for the expected mortality rate (E) calculated from the formula presented above.
(§4) To produce a suitable active substance preparation, one mixes 1 part by weight of active substance with the listed amount of solvent and emulsifier and dilutes the concentrate with water containing an emulsifier at the desired concentration.
Cabbage leaves (Brassica oleracea) are treated by immersion in the active substance preparation of the desired concentration and filled with mustard beetle larvae (Phaedon cochleariae) for as long as the leaves are still damp.
After […] the mortality in % is determined. In the process, 100% means that all beetle larvae were killed; 0% means that no beetle larvae were killed. One determines the determined mortality rate according to the Colby formula (see page 1).

For series [2], the system named is Plutella xylostella (resistant strain). In words: Plutella xylostella test (resistant strain), treated cabbage leaves. The conditions noted are these: 144 h, after 6 d.
Description: as §1, §2, §3, §4
(§5) Cabbage leaves (Brassica oleracea) are treated by immersion in the active substance preparation of the desired concentration and filled with cabbage moth larvae (Plutella xylostella) for as long as the leaves are still damp.
(§6) After […] the mortality in % is determined. In the process, 100% means that all larvae were killed; 0% means that no larvae were killed. One determines the determined mortality rate according to the Colby formula (see page 1).

The subject of series [3] is Aphis gossypii. In words: Aphis gossypii test, immersion of infested cotton leaves. The conditions noted are these: 24 h, after 1 d.
Description: as §1, §2
(§7) If the actual insecticidal mortality rate is greater than calculated, then the combination is […] in its mortality; that is to say, a synergistic effect is present. In this case the mortality rate that is actually observed must be greater than the value for the expected mortality rate (E) calculated from the formula presented above. […]
After […] the mortality in % is determined. […] One calculates the determined mortality rate according to the Colby formula (see page 1).

In series [4] the test system is Myzus persicae. In words: Myzus persicae test, immersion of infested cabbage leaves.
Description: as §1, §2, §3, §4
Cabbage leaves (Brassica oleracea) that are severely afflicted by the green peach aphid (Myzus persicae) are treated by immersion in the active substance preparation of the desired concentration.
After […] the mortality in % is determined. In the process, 100% means that all green peach aphids were killed; 0% means that no green peach aphids were killed. One calculates the determined mortality rate according to the Colby formula (see page 1).

For series [5], the system named is Plutella xylostella (sensitive strain). In words: Plutella xylostella test (sensitive strain), treated cabbage leaves. The conditions noted are these: 144 h, after 6 d, normal sensitivity.
Description: as §1, §2, §3, §4, §5, §6

Series [6] has as its system Spodoptera exigua. In words: Spodoptera exigua test, treated cabbage leaves. Conditions: 144 h, after 6 d.
Description: as §1, §2, §7
(§8) After […] the mortality in % is determined. […] One determines the determined mortality rate according to the Colby formula (see page 1).

The subject of series [7] is Spodoptera frugiperda. In words: Spodoptera frugiperda test, treated cabbage leaves. The conditions noted are these: 72 h, after 3 d.
Description: as §1, §2, §7, §8

The subject of series [8] is Heliothis armigera. In words: Heliothis armigera test, treated cotton leaves with larvae. The conditions noted are these: Helicoverpa armigera, 144 h, after 6 d.
Description: as §1, §2, §3, §4
Cotton leaves (Gossypium hirsutum) are treated by immersion in the active substance preparation of the desired concentration and filled with cotton bollworm larvae (Heliothis armigera) for as long as the leaves are still damp.
as §6

Where “and” joins values, the source holds several entries; their conditions need not be identical. Identical values can stand only once.

The term mortality denotes the share of the test organisms that died. Take `CC1(C)C(C=C(Cl)Cl)C1C(=O)OC(C#N)c1cccc(Oc2ccccc2)c1` (stereo not drawn) [Alpha-cypermethrin, Alpha-Cypermethrin]: in series [1], the mortality at 0.16 ppm worked out at 5%.

Turning to `CC1(C)C(C=C(Cl)Cl)C1C(=O)OC(C#N)c1ccc(F)c(Oc2ccccc2)c1` (stereo not drawn) [Beta-cyfluthrin, Betacyfluthrin], the mortality at 0.6 ppm in series [2] was 35%; in series [6] (0.6 ppm), 25%. The mortality at 0.12 ppm in series [3] (0.12 ppm) stood at 5%; in series [4] (Myzus persicae, 144 h, read-out: Mortality in % after 6 d, 0.12 ppm, after 6 d), 0%; in series [7] (0.12 ppm) it was 5%; in series [1] (0.12 ppm), 15%; in series [8], 0%. In addition, the mortality at 0.024 ppm in series [5] worked out at 10%.

Consider `Cc1c(COC(=O)C2C(/C=C(\Cl)C(F)(F)F)C2(C)C)cccc1-c1ccccc1` (stereo not drawn) [Bifenthrin], for which the mortality at 0.16 ppm in series [4] (Myzus persicae, 144 h, read-out: Mortality in % after 6 d, 0.16 ppm, after 6 d) was found to be 0%. For the same compound, the mortality at 0.8 ppm in series [1] (0.8 ppm) was determined as 35%.

In the case of `CC1(C)[C@H](C(=O)O[C@H](C#N)c2cccc(Oc3ccccc3)c2)[C@@H]1C=C(Br)Br` [Deltamethrin], the mortality at 0.16 ppm in series [1] amounted to 30%.

`CC1(C)C(/C=C(\Cl)C(F)(F)F)C1C(=O)OC(C#N)c1cccc(Oc2ccccc2)c1` (stereo not drawn) [Lambda-cyhalothrin]: the mortality at 0.6 ppm in series [2] is 40%. Moreover, the mortality at 0.024 ppm in series [5] came out at 40%. Also, in series [8], the mortality at 0.12 ppm stood at 55%.

Turning to `N#C/N=C1\SCCN1Cc1ccc(Cl)nc1` [Thiacloprid, thiacloprid], the mortality at 3 ppm in series [2] (3 ppm) is 0%; in series [1] (3 ppm) it was 15%. The mortality at 15 ppm amounted to 10% in series [2] (15 ppm) and 0% in series [6] (15 ppm). In addition, the mortality at 0.6 ppm in series [3] (0.6 ppm) was found to be 35%; in series [4] (Myzus persicae, 144 h, read-out: Mortality in % after 6 d, 0.6 ppm, after 6 d) it was 35%; in series [5] (0.6 ppm), 0%; in series [7] (0.6 ppm), 0%; in series [8] (0.6 ppm), 0%. The “Mortality in % after 6 d” value in series [4] (0.8 ppm, after 6 d) was 0% and 10%. Besides, in series [1] (20 ppm), the mortality at 20 ppm turned out to be 40%. For the same compound, in series [8], the mortality at 0.12 ppm worked out at 0%.
